Assay results: US20080146626A1, “USE OF EPOTHILONES IN THE TREATMENT OF OSTEOPOROSIS AND RELATED DISEASES” (priority 2006, published 2008)
Several values for one entry are separate records, joined by “and”; a condition that tells them apart may be missing. Equal entries are not always repeated.

Assays:
[1] = system: human osteoclasts; test: osteoclast activity assay (bone resorption on bovine bone slices, CTX/TRACP 5b); format: cell-based; conditions: for concentration of CTX released from bone collagen into the culture medium: resorption phase days 7-10
Procedure: The objective of this study is to investigate the effects of selected test compounds selected on resorbing activity of human osteoclasts in vitro. Bone resorption is studied using a model where human osteoclast precursor cells derived from bone marrow are cultured for 7 days on bovine bone slices and allowed to differentiate into bone-resorbing osteoclasts. At day 7, the culture medium is changed, the test compounds are added, and the formed mature osteoclasts are allowed to resorb bone in an additional 3-day culture period. Tartrate-resistant acid phosphatase isoform 5b activity (TRACP 5b) is measured from the culture medium collected at day 7 as an index of the number of osteoclasts formed in each well during the differentiation period. After the totally 10 days culture period, C-terminal cross-linked telopeptides of type I collagen (CTX) are quantitated from the culture medium as an index of bone resorption. The results are expressed as the resorption index (CTX at day 10/TRACP 5b at day 7), which describes the mean activity of a single osteoclast. In each test, a baseline group without test compounds is included to obtain a baseline value. […] The test system can also be modified by adding the test compounds at the beginning of the culture period to study if the test compounds affect osteoclast differentiation. Osteoprotegerin is used as a reference inhibitor of osteoclast differentiation in such cultures.
Used herein is a method where osteoclast precursor cells derived from human bone marrow are cultured on bovine bone slices. The cells are first allowed to differentiate into mature bone-resorbing osteoclasts, and the formed osteoclasts are then allowed to resorb bone. The system is ideally suitable for determining the effects of test compounds on bone resorption in vitro. Test compounds are added into the cell cultures after the differentiation period, and their effect on the resorbing activity of mature osteoclasts is determined.
(§1) The bone resorption assay is performed according to the above described Standard Operation Procedure. Shortly, human bone marrow-derived stem cells are suspended to culture medium and allowed to attach to bovine bone slices. The bone slices are transferred into 96-well tissue culture plates containing culture medium with appropriate amounts of important growth factors favoring osteoclast differentiation, including M-CSF, RANK-ligand and TGF-beta. The cells are incubated in a CO2 incubator in humidified atmosphere of 95% air and 5% carbon dioxide at 37° C. At day 7 when osteoclast differentiation is completed, the culture medium is replaced with culture medium containing conditions favoring osteoclast activity, and the test compounds are added. The cell culture is continued for an additional three days, during which the formed mature osteoclasts are allowed to resorb bone in the presence of vehicle, control inhibitor (E64) or test compounds at different concentrations. Tartrate-resistant acid phosphatase isoform 5b activity (TRACP 5b) is measured from the culture medium collected at day 7 using the BoneTRAP® assay (SBA-Sciences, Oulu, Finland). Medium TRACP 5b activity describes the number of osteoclasts formed in each well during the differentiation period. At the end of the culture period, C-terminal cross-linked telopeptides of type I collagen (CTX) released from the bone slices are quantitated as an index of bone resorption using CrossLaps® for culture assay (Nordic Bioscience, Herlev, Denmark). The results are expressed as the resorption index (CTX at day 10/TRACP 5b at day 7), which describes the mean activity of a single osteoclast. When necessary, the ToxiLight® assay (Cambrex, East Rutherford, N.J., USA) is used to detect cytotoxic effects of test compounds.
Two separate experiments were performed in this study, an osteoclast differentiation assay and an osteoclast activity assay.

[2] = system: human osteoclasts; test: cytotoxicity in human osteoclast activity assay (luminescence released from dying cells); conditions: day 10; for Cytotoxicity, % compared with baseline group: baseline mean = 100%
Procedure: as §1
Two separate experiments were performed in this study, an osteoclast differentiation assay and an osteoclast activity assay. In the osteoclast differentiation assay, osteoclast precursor cells were cultured for 7 days in the presence of the test compound, and TRACP 5b released into the culture medium was determined at day 7 as an index of the number of osteoclasts formed. Cytotoxicity was determined by quantitating the amount of dying cells from the culture medium at day 2. In the osteoclast activity assay, the test compounds were added after osteoclast differentiation was completed at day 7, and the mature osteoclasts were cultured for an additional 3 days, allowing them to resorb bone. […] Medium CTX was measured at day 10 to quantitate bone resorption during days 7-10, and the results are expressed as the resorption index CTX at day 10/TRACP 5b at day 7, which describes the mean resorbing activity of a single osteoclast. Cytotoxicity was determined by quantitating the amount of dying cells from the culture medium at day 10.
The test compounds were added after osteoclast differentiation was completed at day 7, and the mature osteoclasts were cultured for an additional 3 days, allowing them to resorb bone. […] Medium CTX was measured at day 10 to quantitate bone resorption during days 7-10, and the results are expressed as the resorption index CTX at day 10/TRACP 5b at day 7, which describes the mean osteoclast activity. Cytotoxicity was determined by quantitating the amount of dying cells from the culture medium at day 10.

[3] = system: human osteoclast precursor cells derived from bone marrow; test: osteoclast differentiation assay (medium TRACP 5b at day 7); format: cell-based
Procedure: The objective of this study is to investigate the effects of selected test compounds selected on resorbing activity of human osteoclasts in vitro. Bone resorption is studied using a model where human osteoclast precursor cells derived from bone marrow are cultured for 7 days on bovine bone slices and allowed to differentiate into bone-resorbing osteoclasts. […] In each test, a baseline group without test compounds is included to obtain a baseline value. […] The test system can also be modified by adding the test compounds at the beginning of the culture period to study if the test compounds affect osteoclast differentiation. Osteoprotegerin is used as a reference inhibitor of osteoclast differentiation in such cultures.
Appropriate dilutions were made from the stock solution to obtain the desired test concentrations (0.1 nM, 1 nM and 10 nM in osteoclast differentiation assay and 1 nM, 10 nM and 100 nM in osteoclast activity assay).

[4] = 1.0 μM E64, Mean of 6 replicates
[5] = Homo sapiens, Osteoclast, read-out: Resorbing activity, % of activity compared with baseline group

In the case of `CC(C)C[C@H](NC(=O)[C@H]1O[C@@H]1C(=O)O)C(=O)NCCCCN=C(N)N` [Compound E64, reference compound], the “resorption index CTX at day 10/TRACP 5b at day 7” value (shortened to “resorption index CTX”) [1, 4] is reported as 0.45, the “concentration of CTX released from bone collagen into the culture medium” value (“concentration of CTX released” for short) [1, 4] is reported as 8.44 nM and the “concentration of CTX released” value ([1]; 1.0 μM E64, single replicate) is reported as 9.13 nM and 10.96 nM and 7.91 nM and 7.78 nM and 9.39 nM and 5.45 nM. For the same molecule, the “resorption index CTX” value ([1]; 1.0 μM E64, single replicate) was 0.41 (2×) and 0.64 and 0.38 and 0.59 and 0.29, the “luminescence released from dying cells during the culture period” value (“luminescence released” below) [2, 4] was 1594 and the “luminescence released” value ([2]; 1.0 μM E64, single replicate) was 1979 and 1666 and 1489 and 1568 and 1355 and 1507.

`C=CC[C@H]1C(=O)C(C)(C)[C@@H](O)CC(=O)O[C@H](c2ccc3sc(C)nc3c2)C[C@@H]2O[C@]2(C)CCC[C@H](C)[C@@H]1O` [EPO-477, (1S,3S,7S,10R,11S,12S,16R)-7,11-dihydroxy-3-(2-methyl-benzothiazol-5-yl)-10-(prop-2-en-1-yl)-8,8,12,16-tetramethyl-4,17-dioxabicyclo[14.1.0]heptadecane-5,9-dione] was tested, and the “medium TRACP 5b activity at day 7” value ([3]; 0.1 nM, Mean of 6 replicates, in U/L) was 18.24, the “medium TRACP 5b activity at day 7” value ([3]; 0.1 nM, single replicate, in U/L) was 14.72 and 16.43 and 21.41 and 17.57 and 17.37 and 21.95 and the “medium TRACP 5b activity at day 7” value ([3]; 1 nM, Mean of 6 replicates, in U/L) was 8.27. For the same molecule, the “medium TRACP 5b activity at day 7” value ([3]; 1 nM, single replicate) was 9.20 (2×) and 8.25 and 7.59 and 7.52 and 7.84, the “medium TRACP 5b activity at day 7” value ([3]; 10 nM, Mean of 6 replicates, in U/L) was 2.45 and the “medium TRACP 5b activity at day 7” value ([3]; 10 nM, single replicate, in U/L) was 2.88 and 3.02 and 2.34 and 2.15 and 1.93 and 2.41. The “resorption index CTX” value ([1]; 1 nM, Mean of 6 replicates) was 3.31, the “concentration of CTX released” value ([1]; 1 nM, Mean of 6 replicates) was 60.34 nM and the “concentration of CTX released” value ([1]; 1 nM, single replicate) was 56.56 nM and 68.03 nM and 54.94 nM and 58.62 nM and 61.84 nM and 62.04 nM. For the same molecule, the “resorption index CTX” value ([1]; 1 nM, single replicate) was 3.32 and 4.36 and 3.20 and 2.98 and 3.09 and 2.90, the “resorption index CTX” value ([1]; 10 nM, Mean of 6 replicates) was 1.14 and the “concentration of CTX released” value ([1]; 10 nM, Mean of 6 replicates) was 20.16 nM. The “concentration of CTX released” value ([1]; 10 nM, single replicate) was 10.31 nM and 31.82 nM and 15.76 nM and 16.61 nM and 29.41 nM and 17.07 nM, the “resorption index CTX” value ([1]; 10 nM, single replicate) was 0.79 and 1.45 and 0.84 and 1.00 and 1.93 and 0.82 and the “resorption index CTX” value ([1]; 100 nM, Mean of 6 replicates) was 0.78. For the same molecule, the “concentration of CTX released” value ([1]; 100 nM, Mean of 6 replicates) was 13.45 nM, the “concentration of CTX released” value ([1]; 100 nM, single replicate) was 15.63 nM and 14.51 nM and 11.55 nM and 16.48 nM and 6.70 nM and 15.83 nM and the “resorption index CTX” value ([1]; 100 nM, single replicate) was 0.87 and 0.92 and 0.56 and 0.89 and 0.36 and 1.07. The activity at 0.0025 µM [1, 5] was 95%, the activity at 0.005 µM [1, 5] was 103% and the activity at 0.0075 µM [1, 5] was 109%. It also gave an activity at 0.01 µM [1, 5] of 79%, an activity at 0.015 µM [1, 5] of 45% and an activity at 0.02 µM [1, 5] of 62%. For the same molecule, the activity at 0.05 µM [1, 5] was 38%, the “luminescence released” value ([2]; 1 nM, Mean of 6 replicates) was 1864 and the “luminescence released” value ([2]; 1 nM, single replicate) was 2371 and 1802 and 1966 and 1781 and 1685 and 1577. For the same molecule, the “Cytotoxicity, % compared with baseline group” value (shortened to “Cytotoxicity, %”) ([2]; 2.5 nM) was 98%, the “Cytotoxicity, %” value ([2]; 5 nM) was 96% and the “Cytotoxicity, %” value ([2]; 7.5 nM) was 91%. For the same molecule, the “luminescence released” value ([2]; 10 nM, Mean of 6 replicates) was 1957, the “Cytotoxicity, %” value ([2]; 10 nM) was 96% and the “luminescence released” value ([2]; 10 nM, single replicate) was 2193 and 2097 and 2126 and 1815 and 1909 and 1599. The “Cytotoxicity, %” value ([2]; 15 nM) was 79%, the “Cytotoxicity, %” value ([2]; 20 nM) was 78% and the “Cytotoxicity, %” value ([2]; 50 nM) was 85%. The “luminescence released” value ([2]; 100 nM, Mean of 6 replicates) was 2666 and the “luminescence released” value ([2]; 100 nM, single replicate) was 2837 and 2911 and 2428 and 2741 and 2112 and 2964.

In the case of `CC(=O)O[C@H]1C(=O)[C@@]2(C)[C@H]([C@H](OC(=O)c3ccccc3)[C@]3(O)C[C@H](OC(=O)[C@H](O)[C@@H](NC(=O)c4ccccc4)c4ccccc4)C(C)=C1C3(C)C)[C@]1(OC(C)=O)CO[C@@H]1C[C@@H]2O` [Paclitaxel, paclitaxel, reference compound], the activity at 0.0025 µM [1, 5] is reported as 109%, the activity at 0.005 µM [1, 5] is reported as 98% and the activity at 0.01 µM [1, 5] is reported as 87%. It also gave an activity at 0.02 µM [1, 5] of 95%, an activity at 0.05 µM [1, 5] of 64% and an activity at 0.1 µM [1, 5] of 57%. The activity at 0.2 µM [1, 5] was 72%, the “Cytotoxicity, %” value ([2]; 2.5 nM) was 121% and the “Cytotoxicity, %” value ([2]; 5 nM) was 99%. For the same molecule, the “Cytotoxicity, %” value ([2]; 10 nM) was 121%, the “Cytotoxicity, %” value ([2]; 20 nM) was 116% and the “Cytotoxicity, %” value ([2]; 50 nM) was 131%. The “Cytotoxicity, %” value ([2]; 100 nM) was 120% and the “Cytotoxicity, %” value ([2]; 200 nM) was 125%.

B1: OPG: Osteoprotegerin, reference inhibitor of osteoclast differentiation (PeproTech 450-14) (protein, UniProt O00300 22-401, looked up)
Tumor necrosis factor …: ETFPPKYLHYDEETSHQLLCDKCPPGTYLKQHCTAKWKTVCAPCPDHYYTDSWHTSDECLYCSPVCKELQYVKQECNRTHNRVCECKEGRYLEIEFCLKHRSCPPGFGVVQAGTPERNTVCKRCPDGFFSNETSSKAPCRKHTNCSVFGLLLTQKGNATHDNICSGNSESTQKCGIDVTLCEEAFFRFAVPTKFTPNWLSVLVDNLPGTKVNAESVERIKRQHSSQEQTFQLLKLWKHQNKDQDIVKKIIQDIDLCENSVQRHIGHANLTFEQLRSLMESLPGKKVGAEDIEKTIKACKPSDQILKLLSLWRIKNGDQDTLKGLMHALKHSKTYHFPKTVTQSLKKTIRFLHSFTMYKLYQKLFLEMIGNQVQSVKISCL
With B1 the “medium TRACP 5b activity at day 7” value ([3]; 100 ng/ml OPG, Mean of 6 replicates, in U/L) was 8.59 and the “medium TRACP 5b activity at day 7” value ([3]; 100 ng/ml OPG, single replicate, in U/L) was 4.46 and 10.67 and 10.53 and 10.19 and 5.70 and 10.00.
